Experiments:
[1] = xn = mol fraction of the nth substance listed; conditions: 101.3 kPa, Liquid; for speed of sound: Frequency=3 MHz, Sing-around technique in a fixed-path interferometer; for mass density: Vibrating tube method
[2] = refractive index (Na D-line) (dimensionless); xn = mol fraction of the nth substance listed; conditions: 101.3 kPa, Liquid, Standard Abbe refractometry

CCOc1ccccc1 [ethoxybenzene] + C1CCOC1
Conditions | mass density, 298 K [kg/m3] | mass density, 303 K [kg/m3] | mass density, 308 K [kg/m3] | refractive index, 298 K | refractive index, 303 K | refractive index, 308 K | speed of sound, 298 K [m/s] | speed of sound, 303 K [m/s] | speed of sound, 308 K [m/s]
[1], x1 = 0.031 | 886 | 883 | 878 | – | – | – | 1279 | 1255 | 1230
[1], x1 = 0.072 | 892 | 888 | 883 | – | – | – | 1281 | 1256 | 1231
[1], x1 = 0.117 | 897 | 893 | 888 | – | – | – | 1283 | 1258 | 1233
[1], x1 = 0.197 | 905 | 901 | 897 | – | – | – | 1287 | 1262 | 1237
[1], x1 = 0.246 | 910 | 906 | 902 | – | – | – | 1289 | 1265 | 1241
[1], x1 = 0.326 | 918 | 913 | 909 | – | – | – | 1295 | 1271 | 1247
[1], x1 = 0.492 | 931 | 927 | 922 | – | – | – | 1310 | 1287 | 1264
[1], x1 = 0.695 | 944 | 940 | 935 | – | – | – | 1332 | 1309 | 1287
[1], x1 = 0.899 | 955 | 951 | 946 | – | – | – | 1356 | 1334 | 1314
[1], x1 = 1 | 960 | 955 | 951 | – | – | – | 1369 | 1349 | 1329
[2], x1 = 0.031 | – | – | – | 1.41 | 1.408 | 1.405 | – | – | –
[2], x1 = 0.072 | – | – | – | 1.417 | 1.414 | 1.412 | – | – | –
[2], x1 = 0.117 | – | – | – | 1.424 | 1.422 | 1.419 | – | – | –
[2], x1 = 0.197 | – | – | – | 1.436 | 1.433 | 1.43 | – | – | –
[2], x1 = 0.246 | – | – | – | 1.443 | 1.44 | 1.437 | – | – | –
[2], x1 = 0.326 | – | – | – | 1.453 | 1.45 | 1.447 | – | – | –
[2], x1 = 0.492 | – | – | – | 1.472 | 1.469 | 1.466 | – | – | –
[2], x1 = 0.695 | – | – | – | 1.49 | 1.487 | 1.483 | – | – | –
[2], x1 = 0.899 | – | – | – | 1.502 | 1.499 | 1.494 | – | – | –
[2], x1 = 1 | – | – | – | 1.505 | 1.503 | 1.499 | – | – | –

CCOc1ccccc1 [ethoxybenzene] + CN1CCCC1=O
Conditions | mass density, 298 K [kg/m3] | mass density, 303 K [kg/m3] | mass density, 308 K [kg/m3] | refractive index, 298 K | refractive index, 303 K | refractive index, 308 K | speed of sound, 298 K [m/s] | speed of sound, 303 K [m/s] | speed of sound, 308 K [m/s]
[1], x1 = 0.041 | 1023 | 1019 | 1015 | – | – | – | 1534 | 1515 | 1497
[1], x1 = 0.122 | 1018 | 1014 | 1010 | – | – | – | 1513 | 1495 | 1477
[1], x1 = 0.201 | 1013 | 1009 | 1005 | – | – | – | 1495 | 1477 | 1460
[1], x1 = 0.273 | 1008 | 1004 | 1000 | – | – | – | 1480 | 1462 | 1445
[1], x1 = 0.37 | 1001 | 997 | 993 | – | – | – | 1460 | 1443 | 1427
[1], x1 = 0.504 | 992 | 988 | 983 | – | – | – | 1437 | 1420 | 1403
[1], x1 = 0.628 | 983 | 979 | 975 | – | – | – | 1418 | 1400 | 1383
[1], x1 = 0.709 | 978 | 974 | 969 | – | – | – | 1406 | 1388 | 1370
[1], x1 = 0.822 | 971 | 966 | 962 | – | – | – | 1391 | 1372 | 1354
[1], x1 = 1 | 960 | 955 | 951 | – | – | – | 1369 | 1349 | 1329
[2], x1 = 0.041 | – | – | – | 1.469 | 1.468 | 1.466 | – | – | –
[2], x1 = 0.122 | – | – | – | 1.474 | 1.472 | 1.469 | – | – | –
[2], x1 = 0.201 | – | – | – | 1.478 | 1.475 | 1.473 | – | – | –
[2], x1 = 0.273 | – | – | – | 1.481 | 1.479 | 1.476 | – | – | –
[2], x1 = 0.37 | – | – | – | 1.485 | 1.483 | 1.48 | – | – | –
[2], x1 = 0.504 | – | – | – | 1.491 | 1.488 | 1.485 | – | – | –
[2], x1 = 0.628 | – | – | – | 1.495 | 1.492 | 1.489 | – | – | –
[2], x1 = 0.709 | – | – | – | 1.498 | 1.495 | 1.491 | – | – | –
[2], x1 = 0.822 | – | – | – | 1.501 | 1.498 | 1.495 | – | – | –
[2], x1 = 1 | – | – | – | 1.505 | 1.503 | 1.499 | – | – | –

CCOc1ccccc1 [ethoxybenzene] + CN(C)C=O
Conditions | mass density, 298 K [kg/m3] | mass density, 303 K [kg/m3] | mass density, 308 K [kg/m3] | refractive index, 298 K | refractive index, 303 K | refractive index, 308 K | speed of sound, 298 K [m/s] | speed of sound, 303 K [m/s] | speed of sound, 308 K [m/s]
[1], x1 = 0.031 | 946 | 941 | 936 | – | – | – | 1452 | 1432 | 1415
[1], x1 = 0.091 | 948 | 943 | 939 | – | – | – | 1443 | 1424 | 1406
[1], x1 = 0.153 | 950 | 945 | 941 | – | – | – | 1435 | 1415 | 1398
[1], x1 = 0.223 | 952 | 947 | 943 | – | – | – | 1427 | 1407 | 1389
[1], x1 = 0.304 | 954 | 949 | 945 | – | – | – | 1418 | 1398 | 1380
[1], x1 = 0.463 | 956 | 952 | 948 | – | – | – | 1403 | 1383 | 1365
[1], x1 = 0.556 | 957 | 953 | 949 | – | – | – | 1396 | 1376 | 1357
[1], x1 = 0.642 | 958 | 954 | 949 | – | – | – | 1390 | 1370 | 1350
[1], x1 = 0.8 | 959 | 955 | 950 | – | – | – | 1379 | 1360 | 1340
[1], x1 = 1 | 960 | 955 | 951 | – | – | – | 1369 | 1349 | 1329
[2], x1 = 0.031 | – | – | – | 1.431 | 1.43 | 1.427 | – | – | –
[2], x1 = 0.091 | – | – | – | 1.437 | 1.435 | 1.432 | – | – | –
[2], x1 = 0.153 | – | – | – | 1.442 | 1.44 | 1.437 | – | – | –
[2], x1 = 0.223 | – | – | – | 1.448 | 1.446 | 1.442 | – | – | –
[2], x1 = 0.304 | – | – | – | 1.455 | 1.452 | 1.449 | – | – | –
[2], x1 = 0.463 | – | – | – | 1.468 | 1.465 | 1.461 | – | – | –
[2], x1 = 0.556 | – | – | – | 1.475 | 1.471 | 1.468 | – | – | –
[2], x1 = 0.642 | – | – | – | 1.481 | 1.478 | 1.474 | – | – | –
[2], x1 = 0.8 | – | – | – | 1.493 | 1.489 | 1.485 | – | – | –
[2], x1 = 1 | – | – | – | 1.505 | 1.503 | 1.499 | – | – | –
